Data on 34 molecules can be found in US9693971B2, “Compositions for alleviating gastrointestinal tract disorders or associated systemic disorders in ruminants and camelids” (FREIE UNIVERSITÄT BERLIN, priority 2012, dated 2017).

Experiment [1] concerns the target TRPA1 (Homo sapiens, UniProt O75762). Conditions: cited from earlier work.
Experiment [2] concerns the target TRPM8 (Homo sapiens, UniProt Q7Z2W7). The settings on record: cited from earlier work.
For experiment [3], the target named is TRPV1 (Homo sapiens, UniProt Q8NER1). Conditions: cited from earlier work.
Sequence of TRPV1 (Q8NER1 whole entry, species assumed): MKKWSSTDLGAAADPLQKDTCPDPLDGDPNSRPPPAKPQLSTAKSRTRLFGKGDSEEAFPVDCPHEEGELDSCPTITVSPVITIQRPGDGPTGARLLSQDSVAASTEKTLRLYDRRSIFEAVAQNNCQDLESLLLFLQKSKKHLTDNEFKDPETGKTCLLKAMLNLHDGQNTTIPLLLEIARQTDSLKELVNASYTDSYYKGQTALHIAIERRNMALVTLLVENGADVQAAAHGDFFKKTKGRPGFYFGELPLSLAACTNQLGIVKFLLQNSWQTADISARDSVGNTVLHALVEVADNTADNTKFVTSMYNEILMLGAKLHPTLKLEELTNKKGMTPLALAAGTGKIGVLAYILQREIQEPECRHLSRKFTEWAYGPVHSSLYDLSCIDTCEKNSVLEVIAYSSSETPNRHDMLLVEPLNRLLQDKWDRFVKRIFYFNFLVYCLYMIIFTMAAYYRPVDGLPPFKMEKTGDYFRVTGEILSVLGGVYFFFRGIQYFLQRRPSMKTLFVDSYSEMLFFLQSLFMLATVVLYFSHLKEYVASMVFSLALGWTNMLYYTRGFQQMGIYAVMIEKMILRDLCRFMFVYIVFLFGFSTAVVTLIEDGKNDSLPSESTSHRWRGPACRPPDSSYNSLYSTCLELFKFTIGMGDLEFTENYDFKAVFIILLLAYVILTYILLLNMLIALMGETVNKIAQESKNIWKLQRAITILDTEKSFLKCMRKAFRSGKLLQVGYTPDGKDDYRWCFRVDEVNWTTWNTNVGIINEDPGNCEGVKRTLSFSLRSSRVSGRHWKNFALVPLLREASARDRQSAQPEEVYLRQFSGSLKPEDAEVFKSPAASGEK
Experiment [4] deals with T1, TRPV3 (Homo sapiens, UniProt Q8NET8).
T1 sequence (Q8NET8 1-790): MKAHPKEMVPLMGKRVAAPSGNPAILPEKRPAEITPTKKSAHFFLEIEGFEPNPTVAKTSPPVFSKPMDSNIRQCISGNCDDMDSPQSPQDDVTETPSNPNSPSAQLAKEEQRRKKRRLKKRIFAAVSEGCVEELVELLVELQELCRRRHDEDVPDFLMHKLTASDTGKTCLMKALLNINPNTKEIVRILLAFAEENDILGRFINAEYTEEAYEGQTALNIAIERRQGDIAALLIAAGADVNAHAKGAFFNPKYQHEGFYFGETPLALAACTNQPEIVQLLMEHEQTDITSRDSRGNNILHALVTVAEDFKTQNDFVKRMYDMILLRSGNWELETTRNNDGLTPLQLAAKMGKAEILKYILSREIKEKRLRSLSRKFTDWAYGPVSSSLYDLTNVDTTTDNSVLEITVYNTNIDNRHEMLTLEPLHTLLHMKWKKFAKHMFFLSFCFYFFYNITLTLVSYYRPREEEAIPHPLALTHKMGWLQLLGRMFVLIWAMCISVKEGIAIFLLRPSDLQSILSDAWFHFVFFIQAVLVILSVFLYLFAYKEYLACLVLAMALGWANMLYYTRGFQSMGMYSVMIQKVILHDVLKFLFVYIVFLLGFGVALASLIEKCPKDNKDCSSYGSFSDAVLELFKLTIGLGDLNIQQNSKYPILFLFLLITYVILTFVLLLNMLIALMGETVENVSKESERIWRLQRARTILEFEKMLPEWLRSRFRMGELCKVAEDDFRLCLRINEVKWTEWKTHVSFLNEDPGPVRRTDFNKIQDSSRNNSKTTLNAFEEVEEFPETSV
The settings on record: cited from earlier work.

For experiment [5], the system named is rumen epithelium from cattle. As to the kind of experiment: Ussing chamber: ammonium-induced transepithelial short-circuit current (Isc) across isolated rumen epithelium. The experiment is classed as cell-based. Conditions: for influence on ammonium-induced conductivity / transport across rumen epithelium (profile in words): no concentration stated. From the text:
The experiments on the intact epithelium take place as already specified (Abdoun, Stumpff et al. 2005; Abdoun, Stumpff et al. 2010). The measuring techniques used are a combination of the Ussing chamber technique developed by Ussing (1949) and the microelectrode technique.
When examining epithelial transport processes with the Ussing chamber, the epithelium is installed in a special chamber, which makes it possible to rinse the two sides of the epithelium (apical: food side; basolateral: blood side) separately of each other with buffer solutions of various composition, wherein the electrophysiological parameters (current and voltage) across the epithelium are traced. Hereby, it is made possible to differentiate between the transport of an uncharged substance (e.g. ammonia, NH3) and the transport of a charged substance (e.g. ammonium, NH4^+), as the former takes place without a change in current and voltage, whereas the latter is coupled with the transfer of a charge and thus changes the transepithelial electrical parameters.
With the help of a special modification, the reaction of individual epithelia to solution changes, taking place very rapidly and smoothly, is also examined over time. Hereby, for example, the reproducibility of a pharmacological intervention on the same piece of epithelium can very well be examined. This modification of the classic Ussing chamber technique is particularly, albeit not exclusively, used for the comparative “screening” of the various substances which are subject of an aspect of the present invention.
The epithelium is horizontally clamped into a modified Ussing chamber, wherein the mucosal side faces upwards. The chamber made of plexi-glass has a cross-section surface of 0.79 cm^2, which is corrected to 1 cm^2. As a protection against damages on the edges of the epithelium, “edge damage”, a silicone ring is in each case placed between chamber and epithelium. The two resulting chambers (mucosal and serosal) are each supplied by their own perfusion system (4-channel-stand-pump, Ismatec SA). With three-way valves, an independent solution change between altogether eight solutions is possible in the two chambers. During storage, the solutions are gassed in their containers with 100% O2. To warm the solutions up to 37° C., the thin perfusion tubes run through a heat exchanger pump. The suction device (Masterflex R/S, Cole Parmer Instrument Company) present in both chambers guarantees a rapid and safe change of solution. In order to ensure that there are no solution change artefacts when adding agonists and antagonists, the substances are pipetted into the respective solution, wherein the gassing ensures a rapid mixing. In this way, pressure fluctuations or an interruption of the flow through the chamber can be safely precluded.
As in the conventional Ussing chamber technique, there are in each case two electrodes near the tissue and two electrodes distant from the tissue for measuring the transepithelial potential difference and the transepithelial current (Isc). The connections between the Ag/AgCl electrodes, which are filled with 3 M KCl, are established via agar bridges. Just as in Strecker (Strecker 2011), the measuring chamber is connected to a “voltage clamp” installation (Ussing chamber unit) in assembly with a microelectrode amplifier (both Biomedical Instruments Co., Germering). A micromanipulator (MF 500) installed above the measuring chamber offers the possibility to move the microelectrode in fine μm steps. Additionally, a microscope as well as a cold-light source are located above the apparatus.
Menthol (Sigma-Aldrich) was dissolved at a concentration of 1 mol·l^−1 in ethanol and pipetted into the used test solution containing ammonium. For an end concentration of 1 mmol·l^−1, 20 μl of this stock solution was added to 20 ml test solution; for 200 μmol·l^−1 correspondingly less. In control experiments, corresponding amounts of pure ethanol were added to the test solution.

“Also recorded” adds a separate entry of the source. Where two headings read alike, the source gives them in different places.

Sequence of TRPA1 (O75762 whole entry, species assumed): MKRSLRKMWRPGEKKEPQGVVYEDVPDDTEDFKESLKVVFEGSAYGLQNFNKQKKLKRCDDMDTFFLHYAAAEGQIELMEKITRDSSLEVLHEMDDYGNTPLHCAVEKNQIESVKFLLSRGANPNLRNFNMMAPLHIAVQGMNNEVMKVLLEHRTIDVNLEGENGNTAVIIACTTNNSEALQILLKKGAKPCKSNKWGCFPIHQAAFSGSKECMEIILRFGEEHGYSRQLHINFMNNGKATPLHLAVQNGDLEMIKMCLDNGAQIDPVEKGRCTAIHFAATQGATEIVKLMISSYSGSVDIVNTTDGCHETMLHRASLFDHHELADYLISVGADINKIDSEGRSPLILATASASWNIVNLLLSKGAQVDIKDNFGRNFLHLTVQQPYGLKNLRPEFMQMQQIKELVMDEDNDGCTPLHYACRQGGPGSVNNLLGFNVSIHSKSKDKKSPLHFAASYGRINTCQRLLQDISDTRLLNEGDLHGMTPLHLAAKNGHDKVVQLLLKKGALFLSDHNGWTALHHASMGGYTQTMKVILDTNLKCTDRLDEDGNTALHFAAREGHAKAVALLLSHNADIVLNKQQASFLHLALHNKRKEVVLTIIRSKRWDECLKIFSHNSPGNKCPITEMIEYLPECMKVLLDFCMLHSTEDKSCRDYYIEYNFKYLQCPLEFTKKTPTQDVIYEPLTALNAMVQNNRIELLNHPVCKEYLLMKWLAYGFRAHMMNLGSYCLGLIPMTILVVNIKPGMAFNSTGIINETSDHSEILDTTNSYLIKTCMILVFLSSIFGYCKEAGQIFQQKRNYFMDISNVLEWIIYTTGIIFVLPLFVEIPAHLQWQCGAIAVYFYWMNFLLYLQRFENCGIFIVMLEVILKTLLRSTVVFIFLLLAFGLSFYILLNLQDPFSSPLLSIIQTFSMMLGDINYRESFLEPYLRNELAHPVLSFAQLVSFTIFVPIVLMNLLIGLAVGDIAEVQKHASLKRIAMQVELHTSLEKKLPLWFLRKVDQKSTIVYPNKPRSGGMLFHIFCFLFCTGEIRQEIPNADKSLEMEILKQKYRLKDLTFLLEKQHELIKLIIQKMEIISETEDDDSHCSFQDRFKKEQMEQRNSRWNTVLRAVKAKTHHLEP
Sequence of TRPM8 (Q7Z2W7 whole entry, species assumed): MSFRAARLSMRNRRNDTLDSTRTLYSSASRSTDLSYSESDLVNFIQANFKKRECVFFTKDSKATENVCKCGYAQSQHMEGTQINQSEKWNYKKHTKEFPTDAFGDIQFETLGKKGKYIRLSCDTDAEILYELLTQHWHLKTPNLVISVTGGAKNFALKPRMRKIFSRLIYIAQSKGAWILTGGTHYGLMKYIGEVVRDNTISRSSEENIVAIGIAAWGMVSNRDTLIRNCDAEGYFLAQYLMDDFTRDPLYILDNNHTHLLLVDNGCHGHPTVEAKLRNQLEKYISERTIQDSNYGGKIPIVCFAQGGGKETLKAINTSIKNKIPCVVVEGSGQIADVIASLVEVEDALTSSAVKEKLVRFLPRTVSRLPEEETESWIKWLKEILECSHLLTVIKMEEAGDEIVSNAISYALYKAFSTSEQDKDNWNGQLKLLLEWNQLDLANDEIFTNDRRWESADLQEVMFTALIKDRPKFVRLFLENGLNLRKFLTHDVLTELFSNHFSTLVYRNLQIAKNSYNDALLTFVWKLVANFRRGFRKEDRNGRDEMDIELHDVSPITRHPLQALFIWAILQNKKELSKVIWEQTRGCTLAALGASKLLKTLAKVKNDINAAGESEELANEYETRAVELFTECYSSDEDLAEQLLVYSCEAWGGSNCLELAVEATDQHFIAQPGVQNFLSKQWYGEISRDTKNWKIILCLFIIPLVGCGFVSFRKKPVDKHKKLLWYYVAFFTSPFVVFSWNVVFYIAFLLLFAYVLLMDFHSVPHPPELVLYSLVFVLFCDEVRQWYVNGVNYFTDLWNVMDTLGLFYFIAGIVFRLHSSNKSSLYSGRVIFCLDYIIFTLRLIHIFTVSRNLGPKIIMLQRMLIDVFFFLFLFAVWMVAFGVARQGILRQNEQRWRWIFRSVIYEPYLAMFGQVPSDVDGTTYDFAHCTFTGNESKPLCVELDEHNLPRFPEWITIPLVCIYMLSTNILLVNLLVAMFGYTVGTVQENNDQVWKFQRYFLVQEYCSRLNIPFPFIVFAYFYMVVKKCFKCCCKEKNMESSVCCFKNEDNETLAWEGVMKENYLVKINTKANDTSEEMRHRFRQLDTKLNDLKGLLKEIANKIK

For `C=CCS[S+]([O-])CC=C` (stereo not drawn) [Allicin, allicin], in experiment [1], the “Effect on TRPA1” value is recorded as “Agonist”.

Regarding `C=C(C)[C@@H]1CC=C(C)C(=O)C1` [L-carvone, 1-carvone], in experiment [2], the “Effect on TRPM8” value is listed as “Agonist”.

`CCCCCCCC/C=C\CCCCCCCC(=O)NCc1ccc(O)c(OC)c1` [Olvanil, olvanil]: the “Effect on TRPV1” value in experiment [3] was “Agonist”.

For the molecule `C=C(C)[C@@H]1CC[C@@H](C)C[C@H]1O` [Isopulegol, isopulegol], the “Effect on TRPM8” value in experiment [2] was “Agonist”.

As for `C=CCc1ccc(O)c(OC)c1` [Eugenol, eugenol], the “Effect on TRPV1” value in experiment [3] was “Agonist”. Moreover, in experiment [4], the “Effect on TRPV3” value is “nonspecific”. Besides, the “Effect on TRPM8” value in experiment [2] is “Agonist”. For the same molecule, the results for the “Effect on TRPA1” value in experiment [1] and in experiment [1] (listed as eugenol) were “Agonist” and “potent TRPA1 agonists”, respectively. Regarding `COc1cc(CCC(C)=O)ccc1O` [Vanillylacetone, vanillylacetone], in experiment [3], the “Effect on TRPV1” value is recorded as “Agonist”. Consider `Oc1cc2c(cc1O)CN(C(=S)NCCc1ccc(Cl)cc1)CCC2` [Capsazepine, capsazepine], for which, in experiment [3], the “Effect on TRPV1” value is “Antagonist”. Regarding `N` [NH4^+, ammonium], the “transepithelial current, MV” value in experiment [5] (40 mM NH4^+ replacing NMDG+, n=37, NaCl before −2.43, after washout −2.68) is −25.73 μA · cm^−2. The “transepithelial current, Median” value in experiment [5] (40 mM NH4^+ replacing NMDG+, n=37, NaCl median −3.60) is −22.32 μA · cm^−2. As to `Cc1ccc(C(C)C)cc1O` [Carvacrol, carvacrol], the “Effect on TRPV3” value in experiment [4] is “Agonist”. Besides, the results for the “Effect on TRPA1” value in experiment [1] and in experiment [1] (listed as carvacrol) were “Agonist” and “potent TRPA1 agonists”, respectively. On to `CC(C)N=C=S` [Isopropyl isothiocyanate, isopropyl isothiocyanate], for which, in experiment [1], the “Effect on TRPA1” value is on record as “Agonist”. Consider `CC(C)[C@@H]1CC[C@@H](C)CC1=O` [Menthone, menthone], for which the entries for the “Effect on TRPM8” value in experiment [2] and in experiment [2] (listed as menthone) were “Agonist” and “potent TRPM8 agonist”, respectively. Turning to `C=C(C)[C@]12C[C@@H](C)[C@@]34O[C@](Cc5ccccc5)(O[C@@H]1[C@@H]3C=C(COC(=O)Cc1ccc(O)c(OC)c1)C[C@]1(O)C(=O)C(C)=C[C@@H]41)O2` [Resiniferatoxin, resiniferatoxin], the “Effect on TRPV1” value in experiment [3] is “Agonist”. In the case of `CN=C=S` [Methyl isothiocyanate, methyl isothiocyanate], the “Effect on TRPA1” value in experiment [1] was “Agonist”.

As for `S=C=NCc1ccccc1` [Benzyl isothiocyanate, benzyl isothiocyanate], the “Effect on TRPA1” value in experiment [1] is recorded as “Agonist”. Regarding `CC(CC=O)CCCC(C)(C)O` (stereo not drawn) [Hydroxyl-citronellal, hydroxyl-citronellal], the “Effect on TRPM8” value in experiment [2] is reported as “Agonist”. On to `CC12CCC(CC1)C(C)(C)O2` [Eucalyptol, eucalyptol], for which the “Effect on TRPM8” value in experiment [2] is “Agonist”; in experiment [2] (listed as eucalyptol) it was “potent TRPM8 agonist”. As to `CC1(C)CCC[C@]2(C)[C@@H](C=O)C(C=O)=CC[C@@H]12` [Polygodial, polygodial], the “Effect on TRPV1” value in experiment [3] was “Agonist”. Take `CC1CCC(C(C)(C)O)C(O)C1` (stereo not drawn) [Cis- and trans-p-menthane-3,8-diol, p-menthane-3,8-diol]: the “Effect on TRPM8” value in experiment [2] is “Agonist”. For the molecule `C/C=C(/C)C(=O)O[C@H]1C(C)=C2[C@H]([C@@H]1OC(=O)CCCCCCC)[C@@](C)(OC(C)=O)C[C@H](OC(=O)CCC)[C@@]1(O)[C@H]2OC(=O)[C@@]1(C)O` [Thapsigargin, thapsigargin], in experiment [3], the “Effect on TRPV1” value is given as “Antagonist”. `COC(=O)c1ccccc1O` [methyl salicylate]: the “influence on ammonium-induced conductivity / transport across rumen epithelium (profile in words)” value in experiment [5] is “inhibiting profile”. Besides, the “transepithelial current after addition (maximum reduction)” value in experiment [5] (reduced from −25.44±1.8, n=4, not (yet) significant) is −21.06±2.97 μA·cm^−2. Also, the “Effect on TRPA1” value in experiment [1] is given as “potent TRPA1 agonists”; in experiment [1] (listed as Methyl salicilate), “Agonist”. In the case of `O=CC=Cc1ccccc1` [cinnamaldehyde], the “transepithelial current, MV” value in experiment [5] (cinnamaldehyde (concentration not given) in 40 mM NH4^+, n=7, before −31.53, p = 0.313) is −28.39 μA · cm^−2. The “transepithelial current, Median” value in experiment [5] (cinnamaldehyde in 40 mM NH4^+, n=7, before −26.52) is −24.03 μA · cm^−2. Further, the “influence on ammonium-induced conductivity / transport across rumen epithelium (profile in words)” value in experiment [5] is “inhibiting profile”. Also, the “Effect on TRPM8” value in experiment [2] is listed as “Antagonist”. For the same molecule, in experiment [1], the “Effect on TRPA1” value is recorded as “potent TRPA1 agonists; also recorded: Agonist”. `COc1cc(CNC(=O)CCCC/C=C/C(C)C)ccc1O` [capsaicin]: the “influence on ammonium-induced conductivity / transport across rumen epithelium (profile in words)” value in experiment [5] is “significantly influenced”. Moreover, the “Effect on TRPV1” value in experiment [3] was “Agonist”. Take evodiamine: the “Effect on TRPV1” value in experiment [3] is on record as “Agonist”.

Take `S=C=NCCc1ccccc1` [Phenylethyl isothiocyanate, phenylethyl isothiocyanate]: in experiment [1], the “Effect on TRPA1” value is “Agonist”. Take `CC(C)=CCC/C(C)=C/CO` [Geraniol, geraniol]: the “Effect on TRPM8” value is listed as “Agonist” in experiment [2] and “potent TRPM8 agonist” in experiment [2] (listed as geraniol).

As to `C=CCN=C=S` [Allyl isothiocyanate, allyl isothiocyanate], the “Effect on TRPA1” value in experiment [1] is listed as “Agonist”.

In the case of `CC1(C)C[C@H]2C=C(C=O)[C@]3(C=O)C[C@]3(C)[C@H]2C1` [Isovelleral, isovelleral], in experiment [3], the “Effect on TRPV1” value is listed as “Agonist”. As for `O=C1NC(c2cccc([N+](=O)[O-])c2)=CCN1c1ccccc1O` [Icilin, icilin], the “Effect on TRPM8” value in experiment [2] was “Agonist”. For `CCO` [Ethanol], the “Effect on TRPM8” value in experiment [2] is “Antagonist”. In the case of `COc1ccc(CCN(C)CCCC(C#N)(c2ccc(OC)c(OC)c2)C(C)C)cc1OC` (stereo not drawn) [verapamil], the “change of transepithelial current” value in experiment [5] (1 mmol·l^−1 added to solution containing ammonium) is listed as “the current drops”. On to `CC12CCC(CC1=O)C2(C)C` (stereo not drawn) [Camphor, camphor], for which the “Effect on TRPV1” value in experiment [3] is listed as “Agonist”. The “Effect on TRPV3” value in experiment [4] is “nonspecific”. Moreover, the “Effect on TRPA1” value in experiment [1] is reported as “Antagonist”. Regarding `CC1CCC(C(C)C)C(OC(=O)C(C)O)C1` (stereo not drawn) [Menthyl lactate, menthyl lactate], in experiment [2], the “Effect on TRPM8” value is “Agonist”. Consider `C=CC(C)(O)CCC=C(C)C` (stereo not drawn) [Linalool, linalool], for which the “Effect on TRPM8” value in experiment [2] was “Agonist”. On to `C=C(C)[C@@H]1CCC(C)=C[C@H]1c1c(O)cc(CCCCC)cc1O` [Cannabidiol, cannabidiol], for which, in experiment [3], the “Effect on TRPV1” value is reported as “Agonist”.
